Molecular target: T1, recombinant human G9a protein (Homo sapiens, UniProt Q96KQ7)
T1 construct: purchased BPS Bioscience Inc. #51001
T1 sequence (Q96KQ7 785-1210 limits assumed): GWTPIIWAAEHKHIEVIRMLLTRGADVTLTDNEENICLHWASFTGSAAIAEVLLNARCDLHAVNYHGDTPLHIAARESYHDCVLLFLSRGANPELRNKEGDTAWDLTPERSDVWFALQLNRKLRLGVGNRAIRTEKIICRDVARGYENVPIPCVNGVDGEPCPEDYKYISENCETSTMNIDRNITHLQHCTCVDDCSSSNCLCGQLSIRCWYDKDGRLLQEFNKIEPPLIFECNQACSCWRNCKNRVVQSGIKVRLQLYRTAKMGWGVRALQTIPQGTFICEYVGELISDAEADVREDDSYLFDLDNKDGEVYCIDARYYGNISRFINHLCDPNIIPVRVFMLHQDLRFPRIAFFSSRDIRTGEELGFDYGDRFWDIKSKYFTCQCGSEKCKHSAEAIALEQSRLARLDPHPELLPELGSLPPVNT
Test: G9a inhibitory activity test (ALPHA)
Format: biochemical
Settings: biotinylated histone H3 peptide (1-21), SAM, read-out: Inhibitory activity (G9a IC50 value)
Procedure, shortened: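 Human G9a (0.05 to 0.1 nM) in Tris pH 9.0 buffer preincubated with compound 10 min, then biotinylated histone H3 (1-21) peptide and SAM mixed 1:1 from 500 nM and 150 μM solutions, 1 h at room temperature. H3K9me2 detected by AlphaLISA acceptor/streptavidin donor beads; IC50 from percent inhibition relative to no-compound and no-enzyme controls.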

SMILES | IC50 [nM]
Cc1c(C(=O)NC(CCC2CC2)C(=O)Nc2ccc(OC3CCN(C)CC3)cc2)[nH]c2c1C(=O)CC(C)(C)C2 (stereo not shown) [Example 1-85] | < 50
CCCCC(NC(=O)c1[nH]c2c(c1C)C(=O)CC(C)(C)C2)C(=O)Nc1nn(CC)c2ccccc12 (stereo not shown) [Example 1-97] | ≥ 200
CCCCC(NC(=O)c1[nH]c2c(c1C)C(=O)CC(C)(C)C2)C(=O)NCc1ccc(Cl)cc1 (stereo not shown) [Example 1-43] | ≥ 200
CCCCC(NC(=O)c1[nH]c2c(c1C)C(=O)CC(C)(C)C2)C(=O)Nc1ccc(N2CCN(C)CC2)cc1 (stereo not shown) [Example 1-103] | ≥ 200
Cc1c(C(=O)NC(C(=O)Nc2ccc(OC3CCN(C)CC3)nc2)c2ccccc2)[nH]c2c1C(=O)CC(C)(C)C2 (stereo not shown) [Example 1-86] | ≥ 200

Results, then the molecule that gave them:

IC50 [nM] | SMILES
≥ 200 | CCCCC(NC(=O)c1[nH]c2c(c1C)C(=O)CC(C)(C)C2)C(=O)Nc1cccc(-c2ccccn2)c1 (stereo not shown) [Example 1-105]
< 50 | CCCCC(NC(=O)c1[nH]c2c(c1C)C(=O)CC(C)(C)C2)C(=O)Nc1ccc(CN2CCCC2)cc1 (stereo not shown) [Example 1-98]
≥ 200 | CCCCC(NC(=O)c1[nH]c2c(c1C)C(=O)CC(C)(C)C2)C(=O)NCc1ccc(N2CCN(C)CC2)cc1 (stereo not shown) [Example 1-54]
≥ 200 | Cc1c(C(=O)NC(CCC2CC2)C(=O)N2CCc3cc(C#N)ccc32)[nH]c2c1C(=O)CC(C)(C)C2 (stereo not shown) [Example 1-64]

Same assay, conditions: read-out: Inhibitory activity (G9a IC50)

SMILES | IC50 [nM]
Cc1c(C(=O)N[C@@H](CCC2CC2)C(=O)Nc2ccc(C#N)cc2)[nH]c2c1C(=O)CC(C)(C)C2 [Example 15-1, N-[(2S)-1-(4-cyanoanilino)-4-cyclopropyl-1-oxobutan-2-yl]-3,6,6-trimethyl-4-oxo-5,7-dihydro-1H-indole-2-carboxamide] | < 50
CCCCC(NC(=O)c1[nH]c2c(c1C)C(=O)CC(C)(C)C2)C(=O)Nc1ccccc1CN(C)C (stereo not shown) [Example 5-3] | ≥ 200
COc1ccc(NC(=O)C(CCC2CC2)NC(=O)c2ccc(CCN(C)C)cc2)cn1 (stereo not shown) [Example 6-73] | ≥ 200
CCCC[C@H](NC(=O)c1[nH]c2c(c1C)C(=O)CC(C)(C)C2)c1nc2ccc(OCCN3CCCCC3)cc2[nH]1 [Example 37-1, (S)-3,6,6-trimethyl-4-oxo-N-(1-(6-(2-(piperidin-1-yl)ethoxy)-1H-benzo[d]imidazol-2-yl)pentyl)-4,5,6,7-tetrahydro-1H-indole-2-carboxamide] | ≥ 200
CCCCC(NC(=O)Cc1ccccc1C)C(=O)Nc1ccc(OC2CCN(C)CC2)nc1 (stereo not shown) [Example 11-7] | ≥ 200

More lines, now with the values ahead:

IC50 [nM] | SMILES
≥ 200 | Cc1c(C(=O)NC(CCC2CC2)c2nc3cc(CN(C)C)ccc3n2C)[nH]c2c1C(=O)CC(C)(C)C2 (stereo not shown) [Example 32, N-[3-cyclopropyl-1-[5-[(dimethylamino)methyl]-1-methylbenzoimidazol-2-yl]propyl]-3,6,6-trimethyl-4-oxo-5,7-dihydro-1H-indole-2-carboxamide]
< 50 | CCOc1ccc(NC(=O)C(CCC2CC2)NC(=O)c2ccc(Nc3ccncc3)cc2)cn1 (stereo not shown) [Example 6-80]
≥ 200 | Cc1c(C(=O)NC(CCC2CC2)C(=O)N2CCc3ccc(CN4CCCC4)cc32)[nH]c2c1C(=O)CC(C)(C)C2 (stereo not shown) [Example 1-145]
≥ 200 | Cc1c(C(=O)NC(CCC2CC2)C(=O)N2CCc3cc(O)ccc32)[nH]c2c1C(=O)CC(C)(C)C2 (stereo not shown) [Example 1-132]
< 50 | COc1ccc(NC(=O)C(CCC2CC2)NC(=O)c2ccc(Nc3ccncc3)c(C)c2)cn1 (stereo not shown) [Example 6-57]
≥ 200 | CCCC[C@H](NC(=O)c1[nH]c2c(c1C)C(=O)CC(C)(C)C2)C(=O)N1CCc2c(OC3CCN(C)CC3)cccc21 [Example 6-106]
≥ 200 | CCCC[C@H](NC(=O)c1[nH]c2c(c1C)C(=O)CC1(CCCCC1)C2)C(=O)N[C@@H](C)c1ccccc1 [Example 6-43]
< 50 | CCc1cc(C)ncc1NC(=O)C(CCC1CC1)NC(=O)c1[nH]c2c(c1C)C(=O)CC(C)(C)C2 (stereo not shown) [Example 6-1, N-[4-cyclopropyl-1-[(4-ethyl-6-methylpyridin-3-yl)amino]-1-oxobutan-2-yl]-3,6,6-trimethyl-4-oxo-5,7-dihydro-1H-indole-2-carboxamide]

— patent US20230127046A1, “G9a INHIBITOR” (RIKEN, priority 2019, published 2023)
